# Assay results: patent US11078198B2 (BRISTOL-MYERS SQUIBB COMPANY, priority 2017, dated 2021)
# Biological target: T1, human FXR (Homo sapiens, UniProt Q96RI1)
# T1 construct: expressed in transfected cells; host or cells: HEK293 cells stably carrying a 5xGal4-response-element firefly luciferase reporter, transiently transfected with pcDNA3.1-Gal4-FXR
# T1 sequence (Q96RI1 262-486 limits assumed): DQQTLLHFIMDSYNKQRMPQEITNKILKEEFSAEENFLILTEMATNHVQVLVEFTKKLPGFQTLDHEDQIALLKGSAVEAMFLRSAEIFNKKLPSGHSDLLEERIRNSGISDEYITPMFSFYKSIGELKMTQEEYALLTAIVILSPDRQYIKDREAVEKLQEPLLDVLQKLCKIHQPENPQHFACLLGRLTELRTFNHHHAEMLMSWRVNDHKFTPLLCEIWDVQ
# Experiment: transient human FXR/Gal4-luciferase reporter assay
# Assay type: cell-based
# Conditions: Gal4-hFXR transfected HEK293 reporter cells; relative to 8 μM GW-4064
# Procedure, shortened: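 HEK293 cells stably carrying a 5×Gal4-response-element firefly luciferase reporter, transiently transfected overnight with a CMV-driven Gal4 DNA-binding domain/human FXR ligand-binding domain fusion.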
row,SMILES,EC50 [nM]
1,"O=C(O)c1cc(F)c2nc(N3CCC4(C=C(c5c(-c6c(F)cccc6Cl)noc5C5CC5)C4)CC3)sc2c1 [Example 136, 2-(2-(3-(2-Chloro-6-fluorophenyl)-5-cyclopropylisoxazol-4-yl)-7-azaspiro[3.5]non-1-en-7-yl)-4-fluorobenzo[d]thiazole-6-carboxylic acid]",37
2,"O=C(O)c1cc(F)c2nc(N3CCC4(C=C(c5c(-c6c(F)cccc6F)noc5C5CC5)C4)CC3)sc2c1 [Example 137, 2-(2-(5-Cyclopropyl-3-(2,6-difluorophenyl)isoxazol-4-yl)-7-azaspiro[3.5]non-1-en-7-yl)-4-fluorobenzo[d]thiazole-6-carboxylic acid]",155
3,"O=C(O)c1cc(F)c2nc(N3CCC4(C=C(c5c(-c6cccnc6C(F)(F)F)noc5C5CC5)C4)CC3)sc2c1 [Example 138, 2-(2-(5-Cyclopropyl-3-(2-(trifluoromethyl)pyridin-3-yl)isoxazol-4-yl)-7-azaspiro[3.5]non-1-en-7-yl)-4-fluorobenzo[d]thiazole-6-carboxylic acid]",319
4,"O=C(O)c1cc(F)c2nc(N3CCC4(C=C(c5c(-c6cnccc6C(F)(F)F)noc5C5CC5)C4)CC3)sc2c1 [Example 139, 2-(2-(5-Cyclopropyl-3-(4-(trifluoromethyl)pyridin-3-yl)isoxazol-4-yl)-7-azaspiro[3.5]non-1-en-7-yl)-4-fluorobenzo[d]thiazole-6-carboxylic acid]",482
5,"O=C(O)c1ccc2nc(N3CCC4(C=C(c5c(-c6ccccc6OC(F)(F)F)noc5C5CC5)C4)CC3)ccc2c1 [Example 140, 2-(2-(5-Cyclopropyl-3-(2-(trifluoromethoxy)phenyl)isoxazol-4-yl)-7-azaspiro[3.5]non-1-en-7-yl)quinoline-6-carboxylic acid]",133
6,"Cn1cc(C(=O)O)c2ccc(N3CCC4(C=C(c5c(-c6ccccc6C(F)(F)F)noc5C5CC5)C4)CC3)cc21 [Example 141, 6-(2-(5-Cyclopropyl-3-(2-(trifluoromethyl)phenyl)isoxazol-4-yl)-7-azaspiro[3.5]non-1-en-7-yl)-1-methyl-1H-indole-3-carboxylic acid]",142
7,"COc1cc(C(=O)O)nc2ccc(N3CCC4(C=C(c5c(C6CCCCC6)noc5C5CC5)C4)CC3)cc12 [Example 147, 6-(2-(3-Cyclohexyl-5-cyclopropylisoxazol-4-yl)-7-azaspiro[3.5]non-1-en-7-yl)-4-methoxyquinoline-2-carboxylic acid]",1060
8,"CC(C)c1onc(-c2c(Cl)cccc2Cl)c1C1=CC2(CCN(c3ccc4cc(C(=O)O)nnc4c3)CC2)C1 [Example 148, 7-(2-(3-(2,6-Dichlorophenyl)-5-isopropylisoxazol-4-yl)-7-azaspiro[3.5]non-1-en-7-yl) cinnoline-3-carboxylic acid]",548
9,"O=C(O)c1ccc2cc(N3CCC4(C=C(c5c(-c6c(F)cccc6F)noc5C5CC5)C4)CC3)ccc2n1 [Example 151, 6-(2-(5-Cyclopropyl-3-(2,6-difluorophenyl)isoxazol-4-yl)-7-azaspiro[3.5]non-1-en-7-yl)quinoline-2-carboxylic acid]",1990
10,"O=C(O)c1ccc2cc(N3CCC4(C=C(c5c(-c6ncccc6Cl)noc5C5CC5)C4)CC3)ccc2n1 [Example 152, 6-(2-(3-(3-Chloropyridin-2-yl)-5-cyclopropylisoxazol-4-yl)-7-azaspiro[3.5]non-1-en-7-yl)quinoline-2-carboxylic acid]",1630
11,"O=C(O)c1ccc2cc(N3CCC4(C=C(c5c(-c6cccnc6C(F)(F)F)noc5C5CC5)C4)CC3)ccc2n1 [Example 153, 6-(2-(5-Cyclopropyl-3-(2-(trifluoromethyl)pyridin-3-yl)isoxazol-4-yl)-7-azaspiro[3.5]non-1-en-7-yl)quinoline-2-carboxylic acid]",1280
12,"O=C(O)c1ccc2cc(N3CCC4(C=C(c5c(-c6cnccc6C(F)(F)F)noc5C5CC5)C4)CC3)ccc2n1 [Example 154, 6-(2-(5-Cyclopropyl-3-(4-(trifluoromethyl)pyridin-3-yl)isoxazol-4-yl)-7-azaspiro[3.5]non-1-en-7-yl)quinoline-2-carboxylic acid]",554
13,"O=C(O)c1cc2ccc(N3CCC4(C=C(c5c(-c6ccccc6C(F)(F)F)noc5C5CC5)C4)CC3)cc2cn1 [Example 159, 7-(2-(5-Cyclopropyl-3-(2-(trifluoromethyl)phenyl)isoxazol-4-yl)-7-azaspiro[3.5]non-1-en-7-yl)isoquinoline-3-carboxylic acid]",254
14,"O=C(O)c1cc2ccc(N3CCC4(C=C(c5c(-c6cnccc6C(F)(F)F)noc5C5CC5)C4)CC3)cc2cn1 [Example 160, 7-(2-(5-Cyclopropyl-3-(4-(trifluoromethyl)pyridin-3-yl)isoxazol-4-yl)-7-azaspiro[3.5]non-1-en-7-yl)isoquinoline-3-carboxylic acid]",1610
15,"O=C(O)c1cc2ccc(N3CCC4(C=C(c5c(-c6ncccc6Cl)noc5C5CC5)C4)CC3)cc2cn1 [Example 161, 7-(2-(3-(3-Chloropyridin-2-yl)-5-cyclopropylisoxazol-4-yl)-7-azaspiro[3.5]non-1-en-7-yl) isoquinoline-3-carboxylic acid]",2320
16,"O=C(O)c1cc2ccc(N3CCC4(C=C(c5c(-c6c(F)cccc6F)noc5C5CC5)C4)CC3)cc2cn1 [Example 162, 7-(2-(5-Cyclopropyl-3-(2,6-difluorophenyl)isoxazol-4-yl)-7-azaspiro[3.5]non-1-en-7-yl)isoquinoline-3-carboxylic acid]",2820
17,"O=C(O)c1cnc(N2CCC3(C=C(c4c(-c5ccccc5C(F)(F)F)noc4C4CC4)C3)CC2)cc1C(F)(F)F [Example 163, 6-(2-(5-Cyclopropyl-3-(2-(trifluoromethyl)phenyl)isoxazol-4-yl)-7-azaspiro[3.5]non-1-en-7-yl)-4-(trifluoromethyl)nicotinic acid]",344
18,"Cn1nc(C(=O)O)c2ccc(N3CCC4(C=C(c5c(-c6ccccc6C(F)(F)F)noc5C5CC5)C4)CC3)cc21 [Example 164, 6-(2-(5-Cyclopropyl-3-(2-(trifluoromethyl)phenyl)isoxazol-4-yl)-7-azaspiro[3.5]non-1-en-7-yl)-1-methyl-1H-indazole-3-carboxylic acid]",392
19,"Cn1nc(C(=O)O)c2ccc(N3CCC4(C=C(c5c(-c6ccccc6OC(F)(F)F)noc5C5CC5)C4)CC3)cc21 [Example 165, 6-(2-(5-Cyclopropyl-3-(2-(trifluoromethoxy)phenyl)isoxazol-4-yl)-7-azaspiro[3.5]non-1-en-7-yl)-1-methyl-1H-indazole-3-carboxylic acid]",2980

# Other lines, results leading:
row,EC50 [nM],SMILES
1,147,"O=C(O)c1cc(OCCO)c2cc(N3CCC4(C=C(c5c(-c6c(Cl)cncc6Cl)noc5C5CC5)C4)CC3)ccc2n1 [Example 142, 6-(2-(5-Cyclopropyl-3-(3,5-dichloropyridin-4-yl)isoxazol-4-yl)-7-azaspiro[3.5]non-1-en-7-yl)-4-(2-hydroxyethoxy)quinoline-2-carboxylic acid]"
2,159,"O=C(O)c1cc(OCCO)c2cc(N3CCC4(C=C(c5c(-c6ccccc6C(F)(F)F)noc5C5CC5)C4)CC3)ccc2n1 [Example 143, 6-(2-(5-Cyclopropyl-3-(2-(trifluoromethyl)phenyl)isoxazol-4-yl)-7-azaspiro[3.5]non-1-en-7-yl)-4-(2-hydroxyethoxy)quinoline-2-carboxylic acid]"
3,156,"COc1cc(C(=O)O)nc2ccc(N3CCC4(C=C(c5c(-c6cccnc6C(F)(F)F)noc5C5CC5)C4)CC3)cc12 [Example 144, 6-(2-(5-Cyclopropyl-3-(2-(trifluoromethyl)pyridin-3-yl)isoxazol-4-yl)-7-azaspiro[3.5]non-1-en-7-yl)-4-methoxyquinoline-2-carboxylic acid]"
4,160,"COc1cc(C(=O)O)nc2ccc(N3CCC4(C=C(c5c(-c6ncccc6Cl)noc5C5CC5)C4)CC3)cc12 [Example 145, 6-(2-(3-(3-Chloropyridin-2-yl)-5-cyclopropylisoxazol-4-yl)-7-azaspiro[3.5]non-1-en-7-yl)-4-methoxyquinoline-2-carboxylic acid]"
5,185,"COc1cc(C(=O)O)nc2ccc(N3CCC4(C=C(c5c(-c6cnccc6C(F)(F)F)noc5C5CC5)C4)CC3)cc12 [Example 146, 6-(2-(5-Cyclopropyl-3-(4-(trifluoromethyl)pyridin-3-yl)isoxazol-4-yl)-7-azaspiro[3.5]non-1-en-7-yl)-4-methoxyquinoline-2-carboxylic acid]"
6,4350,"O=C(O)c1ccc2cc(N3CCC4(C=C(c5c(-c6ccncc6Cl)noc5C5CC5)C4)CC3)ccc2n1 [Example 150, 6-(2-(3-(3-Chloropyridin-4-yl)-5-cyclopropylisoxazol-4-yl)-7-azaspiro[3.5]non-1-en-7-yl)quinoline-2-carboxylic acid]"
7,326,"O=C(O)c1ccc2cc(N3CCC4(C=C(c5c(-c6c(F)cccc6Cl)noc5C5CC5)C4)CC3)ccc2n1 [Example 156, 6-(2-(3-(2-Chloro-6-fluorophenyl)-5-cyclopropylisoxazol-4-yl)-7-azaspiro[3.5]non-1-en-7-yl)quinoline-2-carboxylic acid]"
8,223,"Cc1cccc(Cl)c1-c1noc(C2CC2)c1C1=CC2(CCN(c3ccc4nc(C(=O)O)ccc4c3)CC2)C1 [Example 157, 6-(2-(3-(2-Chloro-6-methylphenyl)-5-cyclopropylisoxazol-4-yl)-7-azaspiro[3.5]non-1-en-7-yl)quinoline-2-carboxylic acid]"
9,459,"O=C(O)c1cc2ccc(N3CCC4(C=C(c5c(-c6c(F)cccc6Cl)noc5C5CC5)C4)CC3)cc2cn1 [Example 158, 7-(2-(3-(2-Chloro-6-fluorophenyl)-5-cyclopropylisoxazol-4-yl)-7-azaspiro[3.5]non-1-en-7-yl)isoquinoline-3-carboxylic acid]"
